Data set [1] relates to SW480 cells. Put plainly: 3D hyaluronan-based hydrogel construct drug screen, MTS assay. In kind it is cell-based. To be noted: for viability at 100 µM: Homo sapiens, SW480, drug day 5, assay day 7, read-out: percent relative cell viability (MTS, relative to control). As for the experimental part: (§1) Polydimethylsiloxane, or PDMS, was used to coat the bottom of the wells. Cells were embedded within the hyaluronan-based hydrogel and were given 5 days to acclimate to their three-dimensional environment and on day 5 were administered different anticancer drug solutions (FIG. 7, panel A). […] At 100 μM concentrations of Regorafenib and Sorafenib, cellular viability remained below 25% that of the control for all four of the colorectal cancer cell lines utilized. The only exception to this was when 100 μM Regorafenib was administered to CACO2 cells and the percent relative cell viability rose to approximately 48%. […] At a 100 μM concentration, Dabrafenib had greater efficacy in targeting the HCT116 and SW480 cell lines, which had relative cellular viability values of 38% and 43%, as opposed to the HT29 and CACO2 cell lines, which had higher cell viability values of 93% and 75%. 100 μM concentrations of Trametinib produced relative cellular viability results that fell within a narrow range for the four colorectal cell lines with values of 54% for SW480 cells and 74% for HT29 cells.
(§2) Well Coating with PDMS and Cell Isolation: Polydimethylsiloxane, or PDMS, (DOW Corning, North Carolina, USA) was used at a 1:10 curing agent ratio to coat the bottom of the 96-well plates and the plates were then placed in a 80° C. oven for at least one hour. Cells were passaged in the same methods previously mentioned (A) with the desire to place 10 μL 3D hyaluronan-based hydrogel constructs containing 100,000 cells each ([…]) into the wells of a 96-wells plate for all four colorectal cancer cell types. Depending on the cell count, a desired number of cells were isolated in new 15 mL centrifuge tubes as cell-media solution and underwent centrifugation.
(§3) Hydrogel Components of the Single-Cell Type Constructs: The hyaluronic acid-based hydrogel (ESI BIO, California, USA) was produced using a mixture of three components: Heprasil, Gelin-S, and Extralink PEGDA 2-ARM Acrylate crosslinker. These components were mixed in a 2:2:1 ratio by volume. 0.1% Irgacure photoinitiator (Sigma-Aldrich, Missouri, USA) was added to each of the three components prior to their mixture and the three components were placed in a 37° C. incubator for a ˜30 minutes to solubilize.
(§4) Forming Organoid Constructs: Once solubilized, the media was aspirated from the 15 mL centrifuge tube (post-centrifugation) and the cells were isolated as a pellet. The hydrogel components were added directly into the centrifuge tube containing the cells and the cells were carefully resuspended in the mixture. 10 μL of the gel-cell solution was placed in the center of the wells on the PDMS coating. This was continued for all wells containing cells and was repeated for each cell type. After this point, the gel can be exposed to UV light from a BlueWave 200 spot light (Dymax, Connecticut, USA) to solidify the hydrogel, or one can wait ˜30 minutes for the gel to form on its own. DMEM-10 media was then placed in the wells and the constructs were incubated for 5 days.
(§5) Anticancer Drug Screening and Cell Viability: The same five anticancer drugs were added on Day 5 and the cell viability assay occurred on Day 7.
(Tetrazolium dyes change colour on reduction, which living cells bring about.)

The test system of data set [2] is HT29 cells. Described as above. Format: cell-based. The conditions noted are these: for viability at 100 µM: Homo sapiens, HT-29, 100 μM, HT29, drug day 5, assay day 7, read-out: percent relative cell viability (MTS, relative to control). As for the experimental part:
as §1, §2, §3, §4, §5

Data set [3] relates to CACO2 cells. The data set is described as above. To be noted: Homo sapiens, Caco-2, 3D, 100 μM, CACO2, drug day 5, assay day 7; read-out: percent relative cell viability (MTS, relative to control). The procedure: as §1, §2, §3
Forming Organoid Constructs: Once solubilized, the media was aspirated from the 15 mL centrifuge tube (post-centrifugation) and the cells were isolated as a pellet. The hydrogel components were added directly into the centrifuge tube containing the cells and the cells were carefully resuspended in the mixture. 10 μL of the gel-cell solution was placed in the center of the wells on the PDMS coating. This was continued for all wells containing cells and was repeated for each cell type. […]

Data set [4] relates to SW480 cells. Put plainly: 2D drug screen, MTS assay. In kind it is cell-based. To be noted: Homo sapiens, read-out: relative cellular viability (MTS, relative to control). The procedure: (§6) Cancer cells seeded directly into wells were given 4-5 hours to reattach to the bottom of the wells. After that time, the anticancer drug solutions were administered in place of the media (FIG. 6, panel A) and an MTS assay was carried out 2 days later to determine cell viability. […] At 100 μM concentrations of Regorafenib and Sorafenib, and 100 mM concentrations of 5-FU, cellular viability remained below 20% that of the control for all four of the colorectal cancer cell lines utilized. However, screening with Dabrafenib and Trametinib produced diverging results from the other three anticancer drugs at higher concentrations. […] When treated with 1 mM concentrations of 5-FU, relative cellular viability was approximately 39% for SW480 cells and remained between 10%-22% for the HCT116, HT29, and CACO2 cells. These values were considerably lower than the relative cellular viability values for the lowest concentrations of the other anticancer drugs.
(§7) Cell Seeding: The original 15 mL centrifuge tubes containing the 10 mL of DMEM-10, cells, and trypsin were placed into a centrifuge. The centrifugation setting was 1500 RPM and at maximal acceleration for 5 minutes. After that time, the media and trypsin mixture was aspirated from the tubes, leaving the cell pellets still intact. 5 mL of DMEM-10 was then pipetted into each of the tubes, resuspending the cells in the process. Calculated volumes of the 5 mL cell-media solution were determined to ensure that 25,000 cells of each of the four colorectal cancer cell lines were seeded directly into each of the wells of a polystyrene clear-bottom 96-well plate. 100 μL of DMEM-10 media was then pipetted directly into the wells. The 96-well plates were incubated at 37° C. and 5% CO2 for 5 hours to allow the cells to reattach themselves to the bottom of the wells until media was aspirated and anticancer drug solutions were added.
(§8) Addition of Anticancer Drugs for Screening: The anticolorectal cancer drugs used in this screening included 5-FU, Regorafenib, Sorafenib, Trametinib, and Dabrafenib (Sigma-Aldrich, Missouri, USA)). High concentration drug stock solutions were created with DMSO. Lower concentration drug solutions were created by mixing the anticancer drug stocks with DMEM-10 media. […] drug solutions were generated for 5-FU; 1 μM, 10 μM, and 100 μM drug solutions were generated for Regorafenib, Sorafenib, and Dabrafenib; and 1 nM, 10 nM, and 100 nM drug solutions were generated for Trametinib. Media was carefully aspirated from the wells and 200 μL of the various drug-media solutions were placed into the wells containing cells. Three duplicates were generated for each anticancer drug concentration with each of the different cell types to calculate averages and run statistics on the data generated. Well plates were then incubated at 37° C. and 5% CO2 for […].
(§9) Cell viability assay: Cell viability was determined 48 hours after exposure to the anticancer drug solutions. The viability of the cells was examined by the CellTiter 96® AQueous One Solution Cell Proliferation (MTS) assay (Promega, Wisconsin, USA). The anticancer drug-media solutions were aspirated from the wells and 200 μL of the MTS reagent was carefully pipetted into the wells. The incubation time for the cells with the MTS reagent was approximately 45 minutes. The cell viability assay was performed on another 96-well plate and the absorbance was quantified by the EnVision Multilabel Plate Reader (PerkinElmer, California, USA).

Data set [5] deals with HCT116 cells. Put plainly: 3D hyaluronan-based hydrogel construct drug screen, MTS assay. To be noted: Homo sapiens, HCT-116, 3D, 100 μM, HCT116, drug day 5, assay day 7; read-out: percent relative cell viability (MTS, relative to control). The procedure: Polydimethylsiloxane, or PDMS, was used to coat the bottom of the wells. Cells were embedded within the hyaluronan-based hydrogel and were given 5 days to acclimate to their three-dimensional environment and on day 5 were administered different anticancer drug solutions (FIG. 7, panel A). […], Dabrafenib had greater efficacy in targeting the HCT116 and SW480 cell lines, which had relative cellular viability values of 38% and 43%, as opposed to the HT29 and CACO2 cell lines, which had higher cell viability values of 93% and 75%. […]
as §2, §3, §4, §5

In data set [6] the test system is HCT116 cells. Put plainly: cells. In kind it is cell-based. The conditions noted are these: Homo sapiens, HCT-116, read-out: relative cellular viability (MTS, relative to control). As for the experimental part:
as §6, §7, §8, §9

The subject of data set [7] is CACO2 cells. Put plainly: cells. The conditions noted are these: Homo sapiens, Caco-2, read-out: relative cellular viability (MTS, relative to control). Format: cell-based. As for the experimental part:
as §6, §7, §8, §9

The subject of data set [8] is HT29 cells. Put plainly: cells. In kind it is cell-based. To be noted: Homo sapiens, HT-29, read-out: relative cellular viability (MTS, relative to control). As for the experimental part: as §6, §7, §8, §9
Data set [9] concerns liver, cardiac, lung, testis, and brain organoids. Put plainly: 5 organoid integrated drug screening in a miniaturized microfluidic platform, live/dead staining. In kind it is cell-based. To be noted: miniaturized system, 20 uM. The procedure:
Design and Results of Experiments: Adhesive film-based microfluidic platforms were fabricated as described below. As with the full-scale platform described in Example 4, five tissue constructs were initiated containing liver, cardiac, lung, testis, and brain organoids and maintained for 7 days prior to the start of the drug study. At this point, the liver modules were removed from half of the platforms. Capecitabine (20 uM) was administered to all platforms after which viability was assessed through live/dead staining or cardiac beating behavior after 7 days of exposure (day 14 of total study).
FIG. 14 provides an overview of this fabrication methodology.

The test system is the same in data set [10]. Put plainly: 5 organoid integrated drug screening (standard size platform), live/dead staining. Format: cell-based. The conditions noted are these: 20 uM. The procedure: Design and Results of Experiments: Five tissue platforms were initiated containing liver, cardiac, lung, testis, and brain organoids and maintained for 7 days prior to the start of the drug study. At this point, the liver modules were removed from half of the platforms. Capecitabine (20 uM) was administered to all platforms after which viability was assessed through live/dead staining or cardiac beating behavior after 7 days of exposure (day 14 of total study).

Setting [11] is: 7 days of exposure, with liver present.
Where [12] appears, read: 7 days of exposure, without liver.

“Also recorded” adds a separate entry of the source.

These results are taken from patent US20190187129A1, “CANCER MODELING PLATFORMS AND METHODS OF USING THE SAME” (Wake Forest University Health Sciences, priority 2016, published 2019).

As usually defined, the viability is a read-out of living cells in per cent, often relative to untreated cells. In the case of `CC(C)(C)c1nc(-c2cccc(NS(=O)(=O)c3c(F)cccc3F)c2F)c(-c2ccnc(N)n2)s1` [Dabrafenib], the viability at 100 µM in the data set with SW480 cells [1] was 43%; in the data set with HT29 cells [2], 93%; in the data set with CACO2 cells [3], 75%; with SW480 cells [4], around 93%; in the data set with HCT116 cells [5] it was 38%; in the data set with HCT116 cells [6], around 36%.
For the compound `CNC(=O)c1cc(Oc2ccc(NC(=O)Nc3ccc(Cl)c(C(F)(F)F)c3)cc2)ccn1` [Sorafenib], the viability at 100 µM with SW480 cells [1] is below 25%; in the data set on HT29 cells [2], below 25%; in the data set with CACO2 cells [3], below 25%; with SW480 cells [4], below 20%; in the data set on HCT116 cells [5], below 25%; in the data set with CACO2 cells [7] it was below 20%. The viability at 100 µM in the data set with HCT116 cells [6] and in the data set on HT29 cells [8] was below 20% each time.
As to `CC(=O)Nc1cccc(-n2c(=O)n(C3CC3)c(=O)c3c(Nc4ccc(I)cc4F)n(C)c(=O)c(C)c32)c1` [Trametinib], the “percent relative cell viability (MTS, relative to control)” value in the data set with SW480 cells [1] (100 μM concentrations of Trametinib, SW480) is on record as 54%; in the data set with HT29 cells [2] (100 μM concentrations of Trametinib, HT29) it was 74%. In addition, the viability at 0.1 µM in the data set on SW480 cells [4] (100 nM) was around 58%; in the data set on CACO2 cells [7], around 39%.
As to `CCCCCOC(=O)Nc1nc(=O)n([C@@H]2O[C@H](C)[C@@H](O)[C@H]2O)cc1F` [capecitabine], the “brain organoid viability (LIVE/DEAD)” value in data set [9] (7 days of exposure) is “brain organoid viability is high”; in [10] (7 days of exposure, with and without liver), “brain organoids suffered in both groups”. The “cardiac and lung organoid toxicity (LIVE/DEAD)” value in [9] (setting [11]) is “heart and lung toxicity”; in [10] (setting [11]) it was “heart and lung toxicity; also recorded: increased cell death in cardiac and lung organoids”. The “cardiac and lung organoid viability (LIVE/DEAD)” value is “cardiac and lung organoid viability does not decrease” in data set [9] (setting [12]); “cardiac and lung organoid viability does not decrease” in [10] (setting [12]). Moreover, the “metabolism by liver organoids” value in data set [9] (with liver present) and in data set [10] (with liver present) was “metabolized into the toxic drug 5-FU” in each case.
